This is an account of results in US20060166992A1, “Heterocyclically substituted imidazotriazines” (Bayer Healthcare A G, priority 2002, published 2006).

One assay has as its target T1, PDE 10A (Homo sapiens, UniProt Q9Y233).
T1 construct: is expressed recombinantly in full length in Sf9 insect cells; made in house; host or cells: Sf9 insect cells (Bac-to-Bac baculovirus expression system)
Description: Inhibition of PDE 10A (scintillation proximity assay, [3H]cAMP substrate). The assay is classed as biochemical. To be noted: recombinant full-length PDE 10A expressed in Sf9 insect cells; 60 min at 20° C. On the procedure:
PDE 10A (WO 01/29 199, FIG. 1A) is expressed recombinantly in full length in Sf9 insect cells (Invitrogen, Carlsbad, Calif.) with the aid of the Bac-to-Bac™ Baculovirus expression system from Life Technologies (Gaithersburg, Md.). 48 h after infection, the cells are harvested and suspended in 20 ml (per 11 of culture) of lysis buffer (50 mM tris HCl, pH 7.4, 50 mM NaCl, 1 mM MgCl2, 1.5 mM EDTA, 10% glycerol plus 20 μl of Protease Inhibitor Cocktail Set II [CalBiochem, La Jolla, Calif. USA]). The cells are treated with ultrasound at 4° C. for 1 minute and subsequently centrifuged at 10 000 rpm for 30 minutes at 4° C. The supernatant (PDE 10A preparation) was collected and stored at −20° C.
The test substances are dissolved in 100% DMSO for the determination of their in vitro action on PDE 10A and serially diluted. Typically, dilution series from 200 μM to 1.6 μM are prepared (resulting final concentrations in the test: 4 μM to 0.032 μM). 2 μl of the diluted substance solutions in each case are introduced into the hollows of microtiter plates (Isoplate; Wallac Inc., Atlanta, Ga.). Subsequently, 50 μl of a dilution of the PDE 10A preparation described above are added. The dilution of the PDE 10A preparation is chosen such that during the later incubation less than 70% of the substrate is reacted (typical dilution: 1:10 000; dilution buffer: 50 mM tris/HCl pH 7.5, 8.3 mM MgCl2, 1.7 mM EDTA, 0.2% BSA). The substrate, [5′,8-^3H] adenosine 3′,5′-cyclic phosphate (1 μCi/μl; Amersham Pharmacia Biotech., Piscataway, N.J.) is diluted 1:2000 with assay buffer (50 mM tris/HCl pH 7.5, 8.3 mM MgCl2, 1.7 mM EDTA) to a concentration of 0.0005 μCi/μl. The enzyme reaction is finally started by addition of 50 μl (0.025 μCi) of the diluted substrate. The test batches are incubated for 60 min at 20° C. and the reaction is stopped by addition of 25 μl of a suspension containing 18 mg/ml of Yttrium Scintillation Proximity Beads (Amersham Pharmacia Biotech., Piscataway, N.J.). The microtiter plates are sealed using a film and allowed to stand for 60 min at 20° C. Subsequently, the plates are measured for 30 s per hollow in a Microbeta scintillation counter (Wallac Inc., Atlanta, Ga.). IC50 values are determined by means of graphic plotting of the substance concentration against the percentage inhibition.
The PDE 10A-inhibiting action of the compounds according to the invention may be shown by the following examples: […]
For orientation: In a scintillation proximity assay essentially only radioactivity close to the scintillant gives light.

The subject of assay [1] is haloperidol catalepsy. Description: Catalepsy test on rats (potentiation of haloperidol catalepsy). The assay is classed as in vivo. To be noted: 3 mg/kg intraperitoneal together with haloperidol (0.3 mg/kg s.c.), significant.
Description: The period of time which elapses up to the correction of an imposed position can be used as a measure of the intensity of catalepsy.
A low dose of haloperidol (0.3 mg/kg s.c.) is given on its own 30 min before the catalepsy test or administered together with the compound. In order to measure the cataleptic behavior, both forepaws of the rat are put onto a block of wood of 9 cm height and 5.5 cm width×5.5 cm depth. The time which elapses until an animal pulls its forepaws down from the block again is recorded as the duration of catalepsy. All rats are taken from the block of wood after 60 seconds at the latest. The data acquired from each treatment group (10 animals in each case) are analyzed statistically by means of variance analysis (ANOVA).
Assay [2] concerns haloperidol catalepsy. To be noted: described in EP-A 1 250 923; cited from earlier work.

T1 sequence (Q9Y233 1-779 isoform Q9Y233-1): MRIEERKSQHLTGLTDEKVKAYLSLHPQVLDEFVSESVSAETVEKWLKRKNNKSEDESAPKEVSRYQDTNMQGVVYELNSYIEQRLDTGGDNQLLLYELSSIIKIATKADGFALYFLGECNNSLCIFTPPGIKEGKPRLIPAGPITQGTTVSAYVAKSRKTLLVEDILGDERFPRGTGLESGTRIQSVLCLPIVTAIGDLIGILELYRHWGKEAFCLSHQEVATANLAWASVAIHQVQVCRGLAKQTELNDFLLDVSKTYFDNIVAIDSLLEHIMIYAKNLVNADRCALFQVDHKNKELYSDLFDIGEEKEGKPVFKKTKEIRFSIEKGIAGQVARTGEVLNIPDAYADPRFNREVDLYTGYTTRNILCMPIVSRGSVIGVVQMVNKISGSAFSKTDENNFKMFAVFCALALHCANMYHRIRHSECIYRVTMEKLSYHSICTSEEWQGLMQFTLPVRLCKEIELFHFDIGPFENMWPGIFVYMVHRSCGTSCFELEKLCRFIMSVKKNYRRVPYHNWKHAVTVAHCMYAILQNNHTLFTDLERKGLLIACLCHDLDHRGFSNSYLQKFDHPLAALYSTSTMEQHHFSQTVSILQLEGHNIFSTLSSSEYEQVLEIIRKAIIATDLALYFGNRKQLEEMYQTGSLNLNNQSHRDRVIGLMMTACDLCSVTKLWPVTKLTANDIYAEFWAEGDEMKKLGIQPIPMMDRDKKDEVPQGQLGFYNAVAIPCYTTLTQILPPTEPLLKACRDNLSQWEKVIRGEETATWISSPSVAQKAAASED

`COc1cc(Nc2nc(-c3ccncc3)nn3c(C)nc(C)c23)cc(OC)c1OC` [Example 14]: the IC50 – broadly, the concentration that gives 50% inhibition – on PDE 10A was 0.15 µM.

`COc1cc(Nc2nc(-c3cccnc3)nn3c(C)nc(C)c23)cc(OC)c1OC` [Example 16]: the IC50 at PDE 10A amounted to 0.03 µM. Besides, the “increase in the duration of catalepsy” value with haloperidol catalepsy [1] was found to be 103%.

For the molecule `COc1cc(Oc2nc(-c3cccnc3)nn3c(C(C)C)nc(C)c23)cc(OC)c1OC` [Example 10, 7-isopropyl-5-methyl-2-(3-pyridinyl)-4-(3,4,5-trimethoxyphenoxy)imidazo[5,1-f][1,2,4]triazine], on PDE 10A, the IC50 turned out to be 0.008 µM. `COc1cc(Nc2nc(-c3cnc(C)s3)nn3c(C)nc(C)c23)cc(OC)c1OC` [Example 12, 5,7-Dimethyl-2-(2-methyl-1,3-thiazol-5-yl)-N-(3,4,5-trimethoxyphenyl)imidazo-[5,1-f][1,2,4]triazin-4-amine]: the IC50 at PDE 10A was 0.093 µM. In the case of `COc1cc(Oc2nc(-c3ccc(C)nc3)nn3c(C)nc(C)c23)cc(OC)c1OC` [Example 9], at PDE 10A, the IC50 turned out to be 0.038 µM. On to `COc1ccc(Cc2nccc3cc(OC)c(OC)cc23)cc1OC` [papaverine], for which the “effect on haloperidol catalepsy” value in the assay on haloperidol catalepsy [2] was “potentiation of haloperidol catalepsy”.
